In patent US9181251B2, “Anti-malarial compounds from marine natural products” (University of Central Florida Research Foundation, Inc., priority 2012, dated 2015):
Read-outs that look alike come from different tables or passages of the source.

How the values were obtained:
[1] = test system: P. falciparum chloroquine-resistant Dd2 strain; test: Antiplasmodial activity, SYBR Green I fluorescence-based assay; assay type: cell-based; details: for Selectivity: cytotoxicity IC50 (NIH 3T3) over Dd2 IC50
Protocol: Fractions were derived from 20 different marine species. […] All fractions were then analyzed by LC-MS to identify active extracts with the greatest potential for novelty.
(§1) Antiplasmodial activity was tested in P falciparum chloroquine resistant Dd2, and the cytotoxicity was assessed in NIH 3T3 fibroblasts cells.
(§2) Asynchronous cultures were exposed to different concentrations of inhibitor for 72 hrs. […] The cytotoxicity against NIH 3T3 fibroblasts was evaluated using an MTS assay [(3-(4,5-dimethylthiazol-2-yl)-5-(3-carboxymethoxyphenyl)-2-(4-sulfophenyl)-2H-tetrazolium), CellTiter 96® Aqueous non-radioactive cell proliferation assay, Promega

[2] = test system: NIH 3T3 fibroblasts; test: Cytotoxicity against NIH 3T3 fibroblasts (MTS assay); assay type: cell-based; details: Table 2, MTS assay
Protocol: as §1, §2

[3] = reported in the past, Gutierrez et. al. Pharmaceutical Biol. 2005, 43, 762-765; cited from earlier work
[4] = Cytotoxicity against NIH 3T3 fibroblasts (MTS assay); assay type: cell-based; details: mouse, Table 1, NIH 3T3 fibroblasts cells
Protocol: as §1, §2

[5] = has been shown, no source given; cited from earlier work
[6] = Plasmodium falciparum, Table 2, chloroquine-resistant Dd2 strain, asynchronous cultures, 72 hrs, read-out: P. falciparum IC50
[7] = Plasmodium falciparum, Table 1, P falciparum chloroquine resistant Dd2, read-out: Dd2 IC50
[8] = Table 2, chloroquine-resistant Dd2 strain, asynchronous cultures, 72 hrs, read-out: P. falciparum IC50

`NCC(c1c[nH]c2ccccc12)c1c[nH]c2ccccc12` [2,2 bisindol-3-ylethyl amine 9, 2,2 bisindol-3-ylethyl amine] showed an IC50 [1, 6] of 6.5 µM and an IC50 ([2]; Mus musculus, NIH3T3) of 11.5 µM.

For `COC1=C(Br)[C@H](O)[C@](O)(CC#N)C=C1Br` [Aeroplysin-1, aeroplysinin-1], the anti-malarial activity [3] is given as “anti-malarial activity”.

In the case of `C/C1=C/C(=O)C/C(C)=C/CC(C)(C)/C=C/C(=O)[C@@H](C)CCC1` [Compound 2], the IC50 [1, 7] is reported as 1.56 µM, the Selectivity ([1]; Table 1) is reported as 13.94 and the IC50 ([4]; NIH 3T3 fibroblast cells) is reported as 21.8 µM.

With `C/C1=C\CC(C)(C)/C=C/C(=O)[C@@H](C)CCC[C@H](C)CC(=O)C1` [Compound 3] the IC50 ([1]; Plasmodium falciparum, Dd2 strain printed for compound 3 only, strain not printed for 4 and HB39.A10, read-out: IC50) was 2.5 µM, the IC50 [1, 7] was 1.77 µM and the Selectivity ([1]; Table 1) was 11.34. It also gave an IC50 ([4]; NIH 3T3 fibroblast cells) of 20 µM.

For `COc1ccc(/C=C/CCCCC(C)[C@H](O)[C@@H](O)C2NC(=O)C[C@@H](O)CNC(=O)CNC(=O)[C@@H](Cc3c(C(=O)O)[nH]c4ccccc34)NC(=O)CN(C)C(=O)C[C@@]3(O)NC(=O)[C@H](O)C3NC(=O)[C@H]2O)cc1` (stereo partly shown) [Compound 4, microsclerodermin A], the IC50 ([1]; Plasmodium falciparum, DD2) was 0.73 µM, the IC50 ([1]; Plasmodium falciparum, DD2, read-out: Dd2 IC50) was 0.075 µM and the Selectivity ([1]; Table 1) was 47.07. It also gave an IC50 [4] of 3.53 µM.

Work on `CCC(=O)NCCc1c2c3c(ccnc3c3ncsc13)-c1ccccc1N2` [Compound 5, dercitamide] yielded an IC50 ([1]; Dd2 strain printed for compound 3 only, strain not printed for 4 and HB39.A10, read-out: IC50) of 2.3 µM, an IC50 [1, 7] of 1.05 µM and a Selectivity ([1]; Table 1) of 14.13. The IC50 ([4]; NIH 3T3 fibroblast cells) was 14.8 µM and the cytotoxicity [5] was “very moderate cytotoxicity”.

Compound `CN1CC(c2c[nH]c3c(Br)c(Br)cc(O)c23)NCC1c1c[nH]c2cc(Br)ccc12` (stereo not shown) [Dragmacidin 6, Dragmacidin] has an IC50 [1, 8] of 6.4 µM and an IC50 [2] of 7.8 µM.

With `NC(N)=NCCSc1nc(-c2c[nH]c3cc(Br)ccc23)cnc1-c1c[nH]c2cc(Br)ccc12` [Dragmacidin G 12, Dragmacidin G] the IC50 [1, 8] was 6.4 µM and the IC50 [2] was 7.8 µM.

Compound `O=C1N[C@@H](c2c[nH]c3cc(Br)ccc23)CN=C1c1c[nH]c2cc(Br)ccc12` [Hamacanthin A 7, Hamacanthin A] has an IC50 [1, 8] of 3.2 µM and an IC50 [2] of 30.4 µM.

For `O=C1NC[C@H](c2c[nH]c3cc(Br)ccc23)N=C1c1c[nH]c2cc(Br)ccc12` [Hamacanthin B 8, Hamacanthin B], the IC50 [1, 8] was > 20.6 µM and the IC50 [2] was 38.6 µM.

`Brc1ccc2c(-c3cnc(-c4c[nH]c5cc(Br)ccc45)[nH]3)c[nH]c2c1` [Nortopsentin A, reference compound] gave an IC50 [1, 6] of 0.6 µM and an IC50 ([2]; Mus musculus, NIH3T3) of 6 µM.

In the case of Dragmacidin D [Dragmacidin D 11], the IC50 [1, 8] is reported as 5.2 µM and the IC50 [2] is reported as 27.7 µM.
